# Experimental data as given in US8524692B2, “Ocular compositions containing dioleoylphosphatidylglycerol and uses thereof” (Georgia Health Sciences University Research Institute, Inc., priority 2010, dated 2013).
# How the values were obtained:
# keratinocytes [1] = settings: cited from earlier work
# keratinocytes [2] = assay: [3H]Thymidine incorporation into DNA in keratinocytes; format: cell-based; settings: for promotion of proliferation in slowly dividing keratinocytes / inhibition of proliferation in rapidly dividing keratinocytes: 24 hours, PG species prepared by bath sonication, compared with egg phosphatidylglycerol
# Procedure: Keratinocytes were treated for 24 hours with the indicated concentrations of different phosphatidylglycerol species, prepared via bath sonication of phospholipid in serum-free keratinocyte medium. [^3H]Thymidine incorporation into DNA was then determined in duplicate and averaged. All data were transformed prior to analyses to improve assumptions of normality and additivity for the models to be used. Experiments were grouped that had different responses to egg phosphatidylglycerol using finite mixture regression models and the flexmix package in R (1). This method clusters each experiment by the regression fit between In(CPM) and In(concentration), grouping cultures with similar regression lines in the same cluster. The number of clusters was determined using the Bayesian information criterion (BIC). A mixed model analysis of variance was used, conducted using the Proc Mixed procedure in SAS 9.13, separately for each of the grouped clusters to determine how the different phosphatidylglycerol species affected the relationship between cell proliferation and phosphatidylglycerol concentration. The model used for this analysis of variance included phosphatidylglycerol species as a fixed effect that potentially interacted with In(concentration), and random coefficients for each culture/experiment. The number of experiments segregating into each cluster are indicated and *p<0.05 versus the response to egg phosphatidylglycerol liposomes.
# [^3H]Thymidine Incorporation Assays: [^3H]Thymidine incorporation into DNA is measured as described (62).
# The effect of providing phosphatidylglycerol directly to keratinocytes in the form of liposomes was examined, since direct provision of phosphatidylglycerol itself should also trigger early differentiation. […] The egg phosphatidylglycerol used in these experiments is composed primarily of the dioleoyl and dipalmitoyl species; therefore, that there is no effect of dipalmitoyl-PP on DNA synthesis was also determined. On the other hand, if phosphatidylglycerol liposomes are applied to keratinocytes with decreased proliferative capacity, presumably as the result of contact inhibition (and as indicated by reduced [3H]thymidine incorporation into DNA under control conditions), DNA synthesis is stimulated in a dose-dependent manner, with a half-maximal effect at a concentration of approximately 35_g/mL and a maximal stimulation at 100 μg/mL.
# PLD = settings: acute stimulation, radiolabeled phosphatidylethanol production; cited from earlier work
# [3] = tested on: transformed human corneal epithelial cells; assay: Scratch wound closure assay in corneal epithelial cells; format: cell-based; settings: 24 hours
# Procedure: SV40-immortalized human corneal epithelial cells were cultured in a 1:1 mixture of defined keratinocyte serum free (dKSF) medium (Gibco) and minimum essential medium (Cellgro) until confluent. A pipet tip was then used to create a scratch wound in the confluent monolayer. Cells were rinsed with PBS to remove unattached and damaged cells and photographed under the microscope. The medium was replaced with dKSF containing the indicated additions (Ca corresponds to 1 mM Ca^2+). Cells were incubated for 24 hours and photographed again. Percent wound closure was calculated as the change in width of the scratch wound compared to the size of the initial wound and was expressed relative to the control (medium with no additions containing 90 μM Ca^2+); *p<0.05; **p<0.01 versus the control (n=3).
# FIGS. 8A-8B show the effect of egg phosphatidylglycerol and dioleoylphosphatidylglycerol on wound closure in transformed human corneal epithelial cells. SV40-immortalized human corneal epithelial cells were cultured in a 1:1 mixture of defined keratinocyte serum free (dKSF) medium (Gibco) and minimum essential medium (Cellgro) until confluent. […] Percent wound closure was calculated as the change in width of the scratch wound compared to the size of the initial wound and was expressed relative to the control (medium with no additions); *p<0.05 versus the control (n=3). […]
# [4] = tested on: SV40-immortalized human corneal epithelial cells; assay: [3H]Thymidine incorporation into DNA in corneal epithelial cells; format: cell-based; settings: 1 mM calcium versus control 90 μM, 24 hours
# Procedure: [^3H]Thymidine incorporation into DNA was then determined. Values represent the means±SEM of 3 separate experiments performed in duplicate; *p<0.05, **p<0.01 versus the control value.
# SV40-immortalized human corneal epithelial cells were cultured in a 1:1 mixture of defined keratinocyte serum free (dKSF) medium (Gibco) and minimum essential medium (Cellgro) until approximately 70% confluent. […] [^3H]Thymidine incorporation into DNA was then determined. Values represent the means±SEM of 4 separate experiments performed in duplicate; *p<0.01 versus the control value.
# The cells are cultured in defined keratinocyte serum-free (dKSF) medium (Gibco) and passaged following trypsinization from the culture dish.
# keratinocytes [5] = settings: concentrations from 0.1 to 1%; cited from earlier work
compound,measurement,setting,value
"C=C1/C(=C\C=C2/CCC[C@]3(C)[C@@H]([C@H](C)CCCC(C)(C)O)CC[C@@H]23)C[C@@H](O)C[C@@H]1O [1,25-dihydroxyvitamin D3]",radiolabeled PG formation,"keratinocytes [1]; 250 nM, 24 hours",a decrease
"CCCCCCCC/C=C\CCCCCCCC(=O)O[C@H](COC(=O)CCCCCCCCCCCCCCC)COP(=O)(O)OCC(O)CO (stereo partly drawn) [Palmitoyl, oleoyl-PG, palmitoyloleoylphosphatidylglycerol]",promotion of proliferation in slowly dividing keratinocytes,keratinocytes [2],especially effective proproliferative
CCCCCCCCCCCCCC(=O)O[C@@H]1[C@@H](C)[C@@]2(O)[C@@H](C=C(CO)C[C@]3(O)C(=O)C(C)=C[C@@H]23)[C@H]2C(C)(C)[C@]12OC(C)=O [TPA],radiolabeled phosphatidylglycerol levels,keratinocytes [1]; acute stimulation,no increase
same,PLD activity,PLD,activates PLD
CCCCC/C=C\C/C=C\CCCCCCCC(=O)OC[C@H](COP(=O)(O)OCC(O)CO)OC(=O)CCCCCCC/C=C\C/C=C\CCCCC (stereo partly drawn) [dilinoleoyl-PG],inhibition of proliferation in rapidly dividing keratinocytes,keratinocytes [2],particularly effective at inhibiting proliferation
CCCCCCCC/C=C\CCCCCCCC(=O)OC[C@H](COP(=O)(O)OCC(O)CO)OC(=O)CCCCCCC/C=C\CCCCCCCC (stereo partly drawn) [dioleoylphosphatidylglycerol],wound closure,"[3]; 50 mg/ml liposomes, relative to control",significantly enhanced wound closure
same,promotion of proliferation in slowly dividing keratinocytes,keratinocytes [2],especially effective proproliferative
CCCCCCCCCCCCCCCC(=O)OC[C@H](COP(=O)(O)OCCC)OC(=O)CCCCCCCCCCCCCCC [dipalmitoyl-PP],effect of liposomes on DNA synthesis in highly proliferative keratinocytes,keratinocytes [2]; liposomes,no effect
OCC(O)CO [glycerol],inhibition of DNA synthesis together with elevated extracellular calcium,[4],more efficiently inhibit DNA synthesis than either agent alone
same,wound closure,[3]; 0.05% glycerol and calcium (1 mM Ca2+),significantly enhanced wound closure
same,effect on DNA synthesis ([3H]thymidine incorporation) in keratinocytes,keratinocytes [5],inhibited DNA synthesis
OC[C@@H](O)[C@@H](O)[C@H](O)[C@@H](O)CO [sorbitol],effect on DNA synthesis ([3H]thymidine incorporation) in keratinocytes,keratinocytes [5],little or no effect
OC[C@@H](O)[C@H](O)[C@@H](O)CO [xylitol],effect on DNA synthesis ([3H]thymidine incorporation) in keratinocytes,keratinocytes [5],little or no effect
"Palmitoyl, arachidonyl-PG",inhibition of proliferation in rapidly dividing keratinocytes,keratinocytes [2],particularly effective at inhibiting proliferation
"palmitoyl, linoleoyl-PG",inhibition of proliferation in rapidly dividing keratinocytes,keratinocytes [2],particularly effective at inhibiting proliferation
